Data taken from patent US7238376B2, “Black tea extract for prevention of disease” (Rutgers, The State University, priority 2000, dated 2007).

Legend:
W138VA cells = test: proliferation assay, crystal violet staining; format: cell-based, human; conditions: 0, 1, 5, 10, 25 and 50 μM; 4 days
Method: The effects of black tea polyphenols on proliferation of W138 and W138VA cells was examined. W138 diploid fibroblasts have a finite life span whereas the virally transformed W138VA cells are cancerous in nude mice. Both cell types were grown in 24 well plates in the presence of increasing doses of the theaflavin polyphenols, TF-1, TF-2 and TF-3 (0, 1, 5, 10, 25 and 50 μM). Viable cells were stained with crystal violet 4 days after plating. A decrease in staining intensity relative to the untreated control cells were indicative of growth inhibition by the polyphenol compound. Of the three theaflavin polyphenols tested, only TF-2 had significant effects on cells growth. […] The IC50 value for TF-2 and growth inhibition of W138VA cells was estimated to be 3 μM.
Normal human W138 (cell strain AG06814E, PDL=16) and the SV40 virally transformed W138 cells (cell strain AG07217) were obtained from Coriell Institute for Medical Research (Camden, N.J.). Human colon cancer cells, Caco-2 (ATCC #HTB-37) and the matched normal colon cells CCD-33Co (ATCC #CRL-1539) were obtained from the American Type Culture Collection (Rockville, Md.). Cells were cultured in Dulbecco's medium containing 10% fetal bovine serum at 37° C., 5% CO2. […] Cell growth was measured by counting viable cells using the Trypan Blue exclusion method. […] Proliferation was monitored by crystal-violet staining. […]

[1] = tested on: human lymphoid leukemia cells and human stomach tumor cells; conditions: Hibasami et al. 1998; cited from earlier work
Cox-2 gene expression = Cox-2 gene expression in Caco-2 cells (Northern blot / RT-PCR); format: cell-based, human; conditions: TF-2 effects seen at 50 to 100 μM
Method: All three polyphenols were tested, TF-1, TF-2 and TF-3.
The effect of TF-2 on the time course of Cox-2 gene expression in Caco-2 cells was then examined. Cox-2 mRNA was detectable in quiescent Caco-2 cells, consistent with the finding that colon cancer cells have elevated Cox-2 gene expression. Fresh serum induced a 2- to 4-fold increase in Cox-2 expression in Caco-2 cells as early as 4 hours after stimulation; this was expected because of the known stimulatory effects of serum factors.
Confluent cultures were serum-deprived for 48 hours. Cells were then treated with 10% fresh fetal bovine serum in the presence or absence of the black tea extracts (10, 20, 40, 50, 80 or 100 μM) to initiate the progression of the cell cycle. Cells were harvested at either 4 or 12 hours for total RNA isolation. Total RNA samples were resolved by electrophoresis on 1% agarose-formaldehyde gel (6 μg per lane) and transferred onto a nylon membrane. Northern blot analysis was performed.
Confluent cultures were first serum-deprived for 48 hours and then stimulated with 10% fresh fetal bovine serum in the absence or presence of black tea extracts. Cells were harvested and total RNA was prepared using a kit (QIAGEN, Chatsworth, Calif.). Total RNA (1 μg) from each cell sample was reverse transcribed into cDNA by incubating with RNase H reverse transcriptase (Gibco BRL, Grand Island, N.Y.) using oligo(dT)12-18 as primer. For PCR amplification, gene specific primers were designed. The sequences of the sense and antisense primers for various genes were: […]
PCR was performed under conditions that allowed the amounts of PCR products to be proportional to the amounts of RNA input. The housekeeping gene, glyceraldehyde-3-phosphate dehydrogenase (GAPDH) was used as an internal control. The PCR products were analyzed by electrophoresis on 1% agarose gel containing 0.5 μg/ml ethidium bromide.

normal counterparts = conditions: Chen et al. 1998; cited from earlier work
[2] = tested on: Caco-2 colorectal cancer cells, Hs578T breast cancer cells, and SV40-transformed W138 cells; conditions: Chen et al. 1998; cited from earlier work
[3] = tested on: human A431 carcinoma cells; conditions: compared with EGCG; Liang et al. 1999; cited from earlier work
EGF and PDGF receptors = conditions: compared with EGCG; Liang et al. 1999; cited from earlier work

Cox-2 gene expression in Caco-2 cells (Cox-2 gene expression) | Molecule | differential growth inhibition of W138 versus W138VA cells (W138VA cells) | apoptosis in human lymphoid leukemia cells and human stomach tumor cells [1] | growth of normal counterparts (normal counterparts) | growth of human tumor cells [2] | inhibiting the growth of human A431 carcinoma cells [3] | reducing autophosphorylation of EGF and PDGF receptors (EGF and PDGF receptors)
failed to affect Cox-2 gene expression | O=c1c(O)cc([C@H]2Oc3cc(O)cc(O)c3C[C@H]2O)cc2c([C@H]3Oc4cc(O)cc(O)c4C[C@H]3O)cc(O)c(O)c12 [TF-1, theaflavin] | did not exhibit this differential growth inhibition | can induce apoptosis | – | – | – | –
failed to affect Cox-2 gene expression | O=C(O[C@@H]1Cc2c(O)cc(O)cc2O[C@@H]1c1cc(O)c(=O)c2c(O)c(O)cc([C@H]3Oc4cc(O)cc(O)c4C[C@H]3OC(=O)c3cc(O)c(O)c(O)c3)c2c1)c1cc(O)c(O)c(O)c1 [TF-3, theaflavin-3,3′-digallate] | did not exhibit this differential growth inhibition | can induce apoptosis | – | – | as potent as EGCG | as potent as EGCG

Molecule | Cox-2 gene expression in Caco-2 cells (Cox-2 gene expression) | differential growth inhibition of W138 versus W138VA cells (W138VA cells) | apoptosis in human lymphoid leukemia cells and human stomach tumor cells [1] | growth of normal counterparts (normal counterparts) | growth of human tumor cells [2] | inhibiting the growth of human A431 carcinoma cells [3] | reducing autophosphorylation of EGF and PDGF receptors (EGF and PDGF receptors)
(−)epigallocatechin gallate [EGCG] | suppressed Cox-2 gene expression it was not as potent as TF-2 | – | – | little or no inhibitory effect | inhibits growth | – | –
